From patent US9751854B2 (Millennium Pharmaceuticals, Inc., priority 2014, dated 2017) come the findings set out here.

In the first experiment the target is human VPS34 (Homo sapiens (Human), UniProt Q8NEB9). The experiment is described as follows: Human VPS34 enzyme assay (Adapta TR-FRET ADP detection). The class given is biochemical. Further details: Percent Inhibition: dose or concentration left out as unconfirmed.
human VPS34, sequence (Q8NEB9 whole entry): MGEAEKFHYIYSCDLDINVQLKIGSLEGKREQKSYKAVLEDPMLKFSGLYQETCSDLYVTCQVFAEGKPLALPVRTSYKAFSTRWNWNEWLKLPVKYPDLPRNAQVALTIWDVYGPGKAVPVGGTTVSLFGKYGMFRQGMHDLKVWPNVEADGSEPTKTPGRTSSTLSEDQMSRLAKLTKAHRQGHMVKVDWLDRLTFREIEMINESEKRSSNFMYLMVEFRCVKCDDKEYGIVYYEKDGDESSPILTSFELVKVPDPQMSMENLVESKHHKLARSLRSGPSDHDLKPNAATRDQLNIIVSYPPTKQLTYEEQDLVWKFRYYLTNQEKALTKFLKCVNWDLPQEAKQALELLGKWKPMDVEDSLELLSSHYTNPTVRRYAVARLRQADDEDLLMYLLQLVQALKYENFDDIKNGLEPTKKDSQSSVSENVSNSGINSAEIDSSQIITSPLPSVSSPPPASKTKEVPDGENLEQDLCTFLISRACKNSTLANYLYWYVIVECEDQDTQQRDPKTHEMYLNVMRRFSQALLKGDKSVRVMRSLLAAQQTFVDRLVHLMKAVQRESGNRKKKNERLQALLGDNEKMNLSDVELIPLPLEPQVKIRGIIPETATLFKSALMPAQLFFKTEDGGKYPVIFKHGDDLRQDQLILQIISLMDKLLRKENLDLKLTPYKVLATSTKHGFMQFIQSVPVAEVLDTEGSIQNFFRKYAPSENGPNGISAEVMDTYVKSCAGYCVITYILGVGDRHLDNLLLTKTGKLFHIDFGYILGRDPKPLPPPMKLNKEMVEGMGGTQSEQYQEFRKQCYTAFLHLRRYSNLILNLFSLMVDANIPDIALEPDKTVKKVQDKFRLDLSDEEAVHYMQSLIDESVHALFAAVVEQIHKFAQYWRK
Conditions: not given
Turning to `CC(=O)Nc1cc(-c2cnc(C)c(NS(=O)(=O)N3CC4CCC3C4)c2)ccn1` (stereo not shown) [Compound I-445, N-{5-[(2-azabicyclo[2.2.1]hept-2-ylsulfonyl)amino]-6-methyl-3,4′-bipyridin-2′-yl}acetamide], the “Percent Inhibition” value was greater than 99%.

Still in this experiment, the particulars now being: IC50 range class.
A word on the IC50: it is the concentration at which inhibition is half-maximal. As to `Cc1ncc(-c2ccnc(NC(=O)C3CC3(F)F)c2)cc1NS(=O)(=O)c1ccc(Cl)cc1F` (stereo not shown) [Compound I-441, N-(5-{[(4-chloro-2-fluorophenyl)sulfonyl]amino}-6-methyl-3,4′-bipyridin-2′-yl)-2,2-difluorocyclopropanecarboxamide], the IC50 was less than 10 nM. On the same count and under the same terms, the figure for `COc1ncc(-c2ccnc(NC(C)=O)c2)c(C)c1S(=O)(=O)NC(C)(C)C` [Compound I-442, N-[5-(tert-butylsulfamoyl)-6-methoxy-4-methyl-3,4′-bipyridin-2′-yl]acetamide] is 10 to 50 nM; for `CC(=O)Nc1cc(-c2cncc(S(=O)(=O)NC(C)(C)C)c2)ccn1` [Compound I-443, N-[5-(tert-butylsulfamoyl)-3,4′-bipyridin-2′-yl]acetamide] it is 10 to 50 nM.

Compound `CC(=O)Nc1cc(-c2cnc(Cl)c(NS(=O)(=O)c3ccc(Br)cc3F)c2C)ccn1` [Compound I-444, N-(5-{[(4-bromo-2-fluorophenyl)sulfonyl]amino}-6-chloro-4-methyl-3,4′-bipyridin-2′-yl)acetamide] displayed an IC50 of 10 to 50 nM. `CC(=O)Nc1cc(-c2cnc(C)c(NS(=O)(=O)N3CC4CCC3C4)c2)ccn1` (stereo not shown) [Compound I-445, N-{5-[(2-azabicyclo[2.2.1]hept-2-ylsulfonyl)amino]-6-methyl-3,4′-bipyridin-2′-yl}acetamide] returned a concentration for half-maximal inhibition (IC50) of 10 to 50 nM. The same measure, in the same setting: for `Cc1nccc(Nc2cc(-c3cnc(C)c(OC(C)C)c3)ccn2)n1` [Compound I-446, 5-isopropoxy-6-methyl-N-(2-methylpyrimidin-4-yl)-3,4′-bipyridin-2′-amine] the value was 10 to 50 nM. Compound `CC(=O)Nc1cc(-c2cnc(C)c(NS(=O)(=O)N3CCOCC3)c2)ccn1` [Compound I-447, N-{6-methyl-5-[(morpholin-4-ylsulfonyl)amino]-3,4′-bipyridin-2′-yl}acetamide] had an IC50 of less than 10 nM. Compound `CC(=O)Nc1cc(-c2cnc(Cl)c(N3CCCNS3(=O)=O)c2)ccn1` [Compound I-448, N-[6-chloro-5-(1,1-dioxido-1,2,6-thiadiazinan-2-yl)-3,4′-bipyridin-2′-yl]acetamide] came in with an IC50 of 10 to 50 nM. The same measure, in the same setting: the figure for `CNc1ncc(-c2ccnc(NC(C)=O)c2)cc1C(=O)N(C)C12CC(C1)C2` [Compound I-449, 2′-acetamido-N-(bicyclo[1.1.1]pent-1-yl)-N-methyl-6-(methylamino)-3,4′-bipyridine-5-carboxamide] is 10 to 50 nM.

In turn, `CC(=O)Nc1cc(-c2ccnc(Nc3ccnc(C)n3)c2)cn2nccc12` [Compound I-450, N-(6-{2-[(2-methylpyrimidin-4-yl)amino]pyridin-4-yl}pyrazolo[1,5-a]pyridin-4-yl)acetamide] returned an IC50 of 10 to 50 nM. Still for that read-out and setting: the figure for `CC(=O)Nc1cc(-c2cncc(N3CCCN(C)S3(=O)=O)c2)ccn1` [Compound I-452, N-[5-(6-methyl-1,1-dioxido-1,2,6-thiadiazinan-2-yl)-3,4′-bipyridin-2′-yl]acetamide] is 10 to 50 nM. Consider `Cc1nccc(Nc2cc(-c3c[n+]([O-])c(Cl)c(NS(=O)(=O)c4ccc(F)cc4F)c3C)ccn2)n1` [Compound I-454, N-(2-chloro-4-methyl-5-{2-[(2-methylpyrimidin-4-yl)amino)pyridin-4-yl}-1-oxidopyridin-3-yl)-2,4-difluorobenzenesulfonamide], for which the half-inhibitory concentration (IC50) is less than 10 nM. The compound `CNS(=O)(=O)Nc1cc(-c2ccnc(NC(C)=O)c2)cnc1C` [Compound I-455, N-{6-methyl-5-[(methylsulfamoyl)amino]-3,4′-bipyridin-2′-yl}acetamide] came in with an IC50 of 10 to 50 nM. In turn, `CCOC(=O)Nc1cc(-c2cnc(C)c(NS(=O)(=O)c3ccc(Cl)cc3F)c2)ccn1` [Compound I-456, ethyl (5-{[(4-chloro-2-fluorophenyl)sulfonyl]amino}-6-methyl-3,4′-bipyridin-2′-yl}carbamate] returned an IC50 of less than 10 nM. With `Cc1nccc(Nc2cc(-c3cnc(Cl)c(C(=O)N4CCC4)c3C)ccn2)n1` [Compound I-457, axetidin-1-yl{6-chloro-4-methyl-2′-[(2-methylpyrimidin-4-yl)amino]-3,4′-bipyridine-5-yl)methanone], the 50% inhibitory concentration (IC50) was in the range of 10 to 50 nM. Still for that read-out and setting: for `CC(=O)Nc1cc(-c2cncc(N(C)S(=O)(=O)N(C)C)c2)ccn1` [Compound I-458, N-{5-[(dimethylsulfamoyl)(methyl)amino]-3,4′-bipyridin-2′-yl}acetamide] the value was 10 to 50 nM; for `CC(=O)Nc1cc(-c2cncc(S(=O)(=O)Nc3ccccc3)c2)ccn1` [Compound I-459, N-[5-(phenylsulfamoyl)-3,4′-bipyridin-2′-yl]acetamide], 10 to 50 nM; for `CC(=O)Nc1cc(-c2cnc(C)c(N3CCCNC3=O)c2)ccn1` [Compound I-460, N-[6-methyl-5-(2-oxotetrahydropyrimidin-1(2H)-yl)-3,4′-bipyridin-2′-yl]acetamide], greater than 100 nM. The same measure, in the same setting: for `CC(=O)Nc1cc(-c2cncc(S(=O)(=O)NC(C)(C)C)c2C)ccn1` [Compound I-462, N-(5-(N-(tert-butyl)sulfamoyl)-4-methyl-[3,4′-bipyridin]-2′-yl)acetamide] the value was greater than 100 nM. `CC(=O)Nc1cc(-c2cnc(C)c(NS(=O)(=O)c3c(Cl)cccc3Cl)c2)ccn1` [Compound I-463, N-[5-{[(2,6-dichlorophenyl)sulfonyl]amino}-6-methyl-3,4′-bipyridin-2′-yl)acetamide] yielded a half-inhibitory concentration (IC50) of less than 10 nM.

On to `CC(=O)Nc1cc(-c2cnc(C)c(NS(=O)(=O)c3cc(Cl)sc3Cl)c2)ccn1` [Compound I-465, N-[5-{[(2,5-dichloro-3-thienyl)sulfonyl]amino}-6-methyl-3,4′-bipyridin-2′-yl)acetamide], for which the IC50 was in the range of 10 to 50 nM. On to `Cc1c(-c2ccnc(Nc3ccnc(C4CC4)n3)c2)cnc(Cl)c1C(=O)N1CC(C)(C)C1` [Compound I-466, (6-chloro-2′-[(2-cyclopropylpyrimidin-4-yl)amino]-4-methyl-3,4′-bipyridin-5-yl](3,3-dimethylazetidin-1-yl)methanone], for which the IC50 was 10 to 50 nM. On to `CC(=O)Nc1cc(-c2cnc(Cl)c(N3CCCN(C)S3(=O)=O)c2)ccn1` [Compound I-467, N-[6-chloro-5-(6-methyl-1,1-dioxido-1,2,6-thiadiazinan-2-yl)-3,4′-bipyridin-2′-yl)acetamide], for which the IC50 is less than 10 nM. The compound `CC(=O)Nc1cc(-c2cncc(S(=O)(=O)NC34CC5CC(CC(C5)C3)C4)c2)ccn1` [Compound I-468, N-[5-(adamantan-1-ylsulfamoyl)-3,4′-bipyridin-2′-yl]acetamide] gave an IC50 of 10 to 50 nM. `CCc1c(-c2ccnc(NC(C)=O)c2)cnc(Cl)c1NS(=O)(=O)c1ccc(F)cc1F` [Compound I-469, N-(6-chloro-5-{[(2,4-difluorophenyl)sulfonyl]amino}-4-ethyl-3,4′-bipyridin-2′-yl)acetamide] showed an IC50 of 10 to 50 nM.

As to `COc1ncc(-c2ccnc(NC(C)=O)c2)cc1S(=O)(=O)NC12CC(C1)C2` [Compound I-470], the IC50 lay within 10 to 50 nM. `Cc1nccc(Nc2cc(-c3cnc(C)c(OC4CCCC4)c3)ccn2)n1` [Compound I-471, 5-(cyclopentyloxy)-6-methyl-N-(2-methylpyrimidin-4-yl)-3,4′-bipyridin-2′-amine] yielded an IC50 of 10 to 50 nM. On to `CC(=O)Nc1cc(-c2cncc(Nc3ncco3)c2)ccn1` [Compound I-472, N-[5-(1,3-oxazol-2-ylamino)-3,4′-bipyridin-2′-yl]acetamide], for which the half-inhibitory concentration (IC50) is greater than 100 nM.

`CC(=O)Nc1cc(-c2cnc(Cl)c(N3CCCNS3(=O)=O)c2C)ccn1` [Compound I-473, N-[6-chloro-5-(1,1-dioxido-1,2,6-thiadiazinan-2-yl)-4-methyl-3,4′-bipyridin-2′-yl]acetamide]: the 50% inhibitory concentration (IC50) fell in the range of 10 to 50 nM.

The compound `CC(=O)Nc1cc(-c2cncc(S(=O)(=O)N3CCC3)c2)ccn1` [Compound I-474, N-[5-(azetidin-1-ylsulfonyl)-3,4′-bipyridin-2′-yl]acetamide] gave a 50% inhibitory concentration (IC50) of 10 to 50 nM. The same measure, in the same setting: the figure for `Cc1nccc(Nc2cc(-c3cnc(C)c(Oc4ccccc4)c3)ccn2)n1` [Compound I-475, 6-methyl-N-(2-methylpyrimidin-4-yl)-5-phenoxy-3,4′-bipyridin-2′-amine] is 10 to 50 nM; for `CC(=O)Nc1cc(-c2cc(NS(=O)(=O)N(C)C)c3ccnn3c2)ccn1` [Compound I-476, N-(4-{4-[(dimethylsulfamoyl)amino]pyrazolo[1.5-a]pyridin-6-yl}pyridin-2-yl)acetamide] it is 10 to 50 nM; for `CC(=O)Nc1cc(-c2cnc(Cl)c(NS(=O)(=O)N3CC4CCC3C4)c2C)ccn1` (stereo not shown) [Compound I-477, N-{5-[(2-azabicyclo[2.2.1]hept-2-ylsulfonyl)amino]-6-chloro-4-methyl-3,4′-bipyridin-2′-yl}acetamide] it is 10 to 50 nM. In turn, `CC(=O)Nc1cc(-c2cnc(C)c(OS(=O)(=O)c3ccc(F)cc3F)c2)ccn1` [Compound I-478, 2′-acetamido-6-methyl-3,4′-bipyridin-5-yl 2,4-difluorobenzenesulfonate] returned an IC50 of 10 to 50 nM.

`CCOc1cc(-c2ccnc(Nc3ccnc(C)n3)c2)cnc1C` [Compound I-479, 5-ethoxy-6-methyl-N-(2-methylpyrimidin-4-yl)-3,4′-bipyridin-2′-amine]: the half-inhibitory concentration (IC50) was in the range of 10 to 50 nM. On the same count and under the same terms, the figure for `Cc1nccc(Nc2cc(-c3cc(N)c4ccnn4c3)ccn2)n1` [Compound I-480, 6-{2-[(2-methylpyrimidin-4-yl)amino]pyridin-4-yl}pyrazolo[1.5-a]pyridin-4-amine] is 50 to 100 nM.

On to `CC(=O)Nc1cc(-c2cncc(S(=O)(=O)N3CCN(C)CC3)c2)ccn1` [Compound I-481], for which the IC50 was 10 to 50 nM. Still for that read-out and setting: for `Cc1nccc(Nc2cc(-c3cnc(C)c(NC(=O)N4CC(F)(F)C4)c3)ccn2)n1` [Compound I-482, 3,3-difluoro-N-{6-methyl-2′-[(2-methylpyrimidin-4-yl)amino]-3,4′-bipyridin-5-yl}azetidine-1-carboxamide] the value was 50 to 100 nM; for `CC(=O)Nc1cc(-c2cnc(C)c(NS(=O)(=O)N3CCC(C)(C)CC3)c2)ccn1` [Compound I-483, N-(5-{[(4,4-dimethylpiperidin-1-yl)sulfonyl]-amino}-6-methyl-3,4′-bipyridin-2′-yl)acetamide], 10 to 50 nM.
